Data on three molecules can be found in patent US11026925B2, “Angiotensin II receptor antagonist metabolite and NEP inhibitor composite and preparation method thereof” (SHENZHEN SALUBRIS PHARMACEUTICALS CO. LTD, priority 2016, dated 2021).

In data set [1] the test system is animal model with heart failure (ligation of left anterior descending coronary artery). Kind of data set: anti-heart failure activity (long term, chronic) in animal model (rat). It counts as in vivo.
Data set [2] has the same test system. Kind of data set: anti-heart failure activity (short term, acute) in animal model (rat). It counts as in vivo. To be noted: for mAP / mLVP: 7 days before and 3 days after ligation, measured Day 11; for improvement effect on mAP and mLVP / effect on lowering blood pressure compared with untreated animal group: short-term administration, rat. How it is done: The animal model with heart failure using ligation of left anterior descending coronary artery was prepared, the therapeutic drug to the modeling animal was administrated by pre-gavage, once per day for 7 continuous days, and was continuously administrated for three days after successful modeling.
SD male rats aged 6-week old;
Pre-test preparation: All animals were divided into 5 groups by randomized blocks, 6 rats in each group, and the animals were acclimated for 3 days before test treatment; Experimental process: Therapeutic drug was given to the test animals by pre-gavage, once per day for 7 continuous days. Operation was conducted on Day 8, the animals were anesthetized, trachea was connected to a respirator, electrocardiograph (ECG) was connected for real-time recording, thoracic cavity was opened between the 3rd and 4th ribs, left anterior descending coronary artery was ligated, ST segment elevation of ECG indicated successful ligation, the thoracic cavity was closed, and the skin was sutured;
The animals were anesthetized on Day 11, ECG was measured, and then arterial pressure and left ventricular pressure were measured by carotid artery intubation.

For data set [3] the following is noted: singly used as medication; cited from earlier work.
A short description of data set [4]: Hygroscopicity (plain sample) at RH 75% and RH 85%. It counts as physicochemical.
The nature of data set [5]: Flowability (angle of repose, bulk density). It counts as physicochemical.
The subject of data set [6] is patients with heart failure. To be noted: compared with the enalapril treatment group; cited from earlier work.
[7] abbreviates: 30 mg/kg gavage once per day for 4 weeks.
[8] abbreviates: 68 mg/kg gavage once per day for 4 weeks.
Where [9] appears, read: samples crushed to particle size distribution similar to LCZ696.

The structures appear in SMILES notation. Where a name gives a salt, the structure may show the parent alone.

As for `CCOC(=O)[C@H](C)C[C@@H](Cc1ccc(-c2ccccc2)cc1)NC(=O)CCC(=O)O` [AHU377 calcium salt, AHU377 (Sacubitril, CAS: 149709-62-6)], in data set [1] (setting [7]), the Ejection fraction amounted to 53.3%, the Heart rate amounted to 378.9 beats/min, the Myocardial fibrosis is listed as 54.88% and the “Thickness of heart wall” value stood at 0.137 cm. Besides, in data set [2] (30 mg/kg gavage once per day), the mAP was 104 mmHg and the mLVP came out at 63 mmHg. Moreover, the “improvement effect on mAP and mLVP / effect on lowering blood pressure compared with untreated animal group” value in data set [2] is “not significant”.
As for `CCCCc1nc(Cl)c(C(=O)O)n1Cc1ccc(-c2ccccc2-c2nnn[nH]2)cc1` [EXP3174], the bioavailability entry in data set [3] was “low bioavailability”. Besides, in data set [1] (setting [7]), the Ejection fraction came to 47.9%, the Heart rate stood at 427.8 beats/min, the Myocardial fibrosis is given as 62.89% and the “Thickness of heart wall” value is listed as 0.136 cm. In data set [2] (30 mg/kg gavage once per day), this molecule gave a mAP of 106 mmHg and a mLVP of 61 mmHg. In addition, the “improvement effect on mAP and mLVP / effect on lowering blood pressure compared with untreated animal group” value in data set [2] is listed as “not significant”.
`CCCCC(=O)N(Cc1ccc(-c2ccccc2-c2nnn[n-]2)cc1)[C@H](C(=O)[O-])C(C)C.CCOC(=O)[C@H](C)C[C@@H](Cc1ccc(-c2ccccc2)cc1)NC(=O)CCC(=O)[O-].O.[Na+].[Na+].[Na+]` [LCZ696]: in data set [1] (setting [8]), the Ejection fraction is 70.6%, the Heart rate turned out to be 412.9 beats/min and the Myocardial fibrosis was 11.51%. The “state of test samples at the end of the hygroscopicity experiment” value in data set [4] (RH 75% and RH 85%, end of experiment) is listed as “completely deliquescent”. Also, the “water content, RH 75% Day 0” value in data set [4] (RH 75%, Day 0, plain sample) was 4.9%. Further, the “water content, RH 85% Day 0” value in data set [4] (RH 85%, Day 0, plain sample) amounted to 4.9%. In data set [5] (powder property test), the “electrostatic phenomenon of powder” value is “electrostatic phenomenon” and the “flowability (in words)” value is “hardly flowable”. Moreover, in data set [5] (setting [9]), the Angle of repose was determined as 57.35 ° and the Bulk density was found to be 0.527 g/mL. Besides, the “reduction of hospitalization rate of patients with heart failure” value in data set [6] is 21%. In data set [2] (68 mg/kg gavage once per day), the mAP was 78 mmHg and the mLVP stood at 44 mmHg.
